From patent US9995730B2, “Hypoxia Inducible Factor (HIF) Activity Reporter Cell Line” (Universiti Putra Malaysia (UPM), priority 2012, dated 2018) come the findings set out here.

One data set has as its system HIF. The data set is described as follows: HIF activity reporter assay (single luciferase assay, 4XEPO-HRE-FLuc stable Saos-2 clone 3). The class given is cell-based, human. The conditions noted are these: for reporter signal intensities: FIGS. 9A and B legend. Here is the method:
To confirm the HIF reporter activity of neomycin-resistant parental population, a single luciferase assay was conducted. Initially, 2.5×10^4 of the cells were plated in wells of a 48-well plates in antibiotic-free DMEM with 10% FBS for 16 hours. One of the plates was then incubated for 24 hours in a normoxic (21% 02) gaseous atmosphere in a humidified CO2 incubator while the other was incubated in a hypoxic (0.5% 02) gaseous environment in a hypoxic chamber (BioSpherix, USA) controlled by an oxygen regulator (ProOx model 110, BioSpherix, USA. After 24 hours of exposure to different oxygen concentrations, Bright-Glo™ Luciferase Assay (Promega, USA) was conducted to analyse the HIF reporter activity. Initially, growth media in each well was discarded and the cells were rinsed once with 300 μl of 1×PBS. Room temperature-equilibrated Glo Lysis Buffer (GLB; 60 μl) was then added into the wells. Plates were then gently rocked on a shaker for 5 min at room temperature. Cell lysis was confirmed visually by observing the wells of the 48-well plate under a light microscope. Thirty microliters of the resulting cell lysates were then transferred into individual glass vials. Bright-Glo™ Assay Reagent was then added into each tube at a 1:1 (v/v) ratio. Luminescence intensity was immediately read and recorded by a Luminometer (Sirius-2, Titertek-Berthold).
(§1) To verify the property of the stable single cell population as an assay system to measure HIF activity, a proof of concept study was performed with commercially available and known HIF inhibitors. […] Treatment of these drugs in certain cancer cells leads to cell death. To confirm that the inhibition of bioluminescence in our cell assay system is due to HIF inhibition rather than this cytotoxic effect, we simultaneously determined the viability of cells under various concentrations of each drug used for the inhibition assay. The 3-(4,5-dimethylthiazol-2-yl)-2,5-[…] bromide MTT assay was used. […] The cells were then incubated in either normoxic or hypoxic conditions for 24 hours. After the treatment, cell culture media was replaced with fresh serum-free DMEM containing 0.5 mg/ml MTT. After 4 hours of incubation in a humidified CO2 incubator at 37° C., formazan precipitates were dissolved with 100 μl of DMSO. The resulting reaction was read using a microplate reader at 570 nm absorbance and 630 nm as the reference wavelength. The half maximal inhibitory concentration (IC50) of each drug towards the cells was determined by plotting graphs using the Graphpad Prism 5 software. HIF inhibitory effects at the various concentrations of drugs tested were also measured using the single luciferase assay system. A correlation between the drugs' effects on cell viability and HIF inhibition was then evaluated.
Background: Reporter assays use an easily measured gene product as a stand-in for the process of interest.

Data set [1] has as its system clone 3 cells (stable Saos-2 osteosarcoma clone). Put plainly: MTT cell viability assay. The data set is classed as cell-based, human. How it is done: as §1, with “To confirm that the inhibition of bioluminescence in our cell assay system is due to HIF inhibition rather than this cytotoxic effect, we simultaneously determined the viability of cells under various concentrations of each drug used for the inhibition assay.” left out
(Tetrazolium assays rely on reduction of a dye to a coloured formazan, in cell work by metabolically active cells.)

As to `N.N.[Cl][Pt][Cl]` [cisplatin], in the data set on HIF, the reporter signal intensities result was “reduction of reporter signal intensities”. For the same molecule, the “inhibition of luciferase signals” value in the data set with HIF (hypoxic clone 3, 25 μM concentration) is on record as about 60%.

On to `CC(C)C[C@H](NC(=O)[C@H](Cc1ccccc1)NC(=O)c1cnccn1)B(O)O` [Bortezomib], for which the cell viability result is “the inhibition was associated with cell death” in data set [1] (concentrations higher than 500 nM) and “without affecting cell viability” in data set [1] (concentrations of up to 500 nM). Moreover, in the data set with HIF, the reporter signal intensities result is “reduction of reporter signal intensities”. The hypoxia-induced luciferase signal result in the data set with HIF (clone 3 cells, hypoxia, concentrations of up to 500 nM) is “significantly reduced”.
